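In this assay, cells in 96-well plates receive the compound at five concentrations for 48 hours. Endpoints are linearly interpolated between the surrounding concentrations. TGI denotes the concentration required for complete inhibition of growth.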
Columns and labels:
Assay in all cases: NCI-60 cell line screen, 48 h
EKVX NSCLC = system: EKVX NSCLC
NCI-H23 lung = system: NCI-H23 lung
CAKI-1 renal = system: CAKI-1 renal
SN12C renal = system: SN12C renal
K-562 leukemia = system: K-562 leukemia
SNB-78 CNS = system: SNB-78 CNS
NCI-H460 lung = system: NCI-H460 lung
OVCAR-5 ovarian = system: OVCAR-5 ovarian
HCT-15 colon = system: HCT-15 colon
SK-MEL-28 melanoma = system: SK-MEL-28 melanoma
SK-OV-3 ovarian = system: SK-OV-3 ovarian
COLO 205 colon = system: COLO 205 colon
786-0 renal = system: 786-0 renal
NCI-H226 lung = system: NCI-H226 lung
ACHN renal = system: ACHN renal
U251 CNS = system: U251 CNS
SF-295 CNS = system: SF-295 CNS
DMS 114 small cell lung = system: DMS 114 small cell lung
HOP-92 NSCLC = system: HOP-92 NSCLC
M14 melanoma = system: M14 melanoma
TK-10 renal = system: TK-10 renal
HT29 colon = system: HT29 colon
SNB-75 CNS = system: SNB-75 CNS
OVCAR-8 ovarian = system: OVCAR-8 ovarian
A498 renal = system: A498 renal
KM12 colon = system: KM12 colon
DMS 273 small cell lung = system: DMS 273 small cell lung
SF-268 CNS = system: SF-268 CNS
LXFL 529 NSCLC = system: LXFL 529 NSCLC
UACC-257 melanoma = system: UACC-257 melanoma
MALME-3M melanoma = system: MALME-3M melanoma
LOX IMVI melanoma = system: LOX IMVI melanoma
HOP-62 NSCLC = system: HOP-62 NSCLC
SF-539 CNS = system: SF-539 CNS
SK-MEL-2 melanoma = system: SK-MEL-2 melanoma
HOP-18 NSCLC = system: HOP-18 NSCLC
UACC-62 melanoma = system: UACC-62 melanoma
OVCAR-4 ovarian = system: OVCAR-4 ovarian
RPMI-8226 leukemia = system: RPMI-8226 leukemia
SNB-19 CNS = system: SNB-19 CNS
RXF 393 renal = system: RXF 393 renal
OVCAR-3 ovarian = system: OVCAR-3 ovarian
HCT-116 colon = system: HCT-116 colon
SK-MEL-5 melanoma = system: SK-MEL-5 melanoma
SW-620 colon = system: SW-620 colon
UO-31 renal = system: UO-31 renal
IGROV1 ovarian = system: IGROV1 ovarian
HCC-2998 colon = system: HCC-2998 colon
NCI-H522 lung = system: NCI-H522 lung
KM20L2 colon = system: KM20L2 colon
MDA-MB-231 breast = system: MDA-MB-231 breast
DU-145 prostate = system: DU-145 prostate
HL-60(TB) leukemia = system: HL-60(TB) leukemia
BT-549 breast = system: BT-549 breast
HS 578T breast = system: HS 578T breast
MDA-MB-435 = system: MDA-MB-435
NCI/ADR-RES ovarian = system: NCI/ADR-RES ovarian
MOLT-4 leukemia = system: MOLT-4 leukemia
MDA-N = system: MDA-N
CCRF-CEM leukemia = system: CCRF-CEM leukemia
MCF7 breast = system: MCF7 breast
T-47D breast = system: T-47D breast
A549 NSCLC = system: A549 NSCLC
PC-3 prostate = system: PC-3 prostate
SR leukemia = system: SR leukemia

## COc1ccc(NC(=O)C2C(=O)N(c3ccc(OC)cc3)C(=O)/C2=N\NC(N)=O)cc1 (centres undefined)
EKVX NSCLC
  TGI: > 100 µM
NCI-H23 lung
  TGI: > 100 µM
CAKI-1 renal
  TGI: > 100 µM
SN12C renal
  TGI: > 100 µM
K-562 leukemia
  TGI: > 100 µM
SNB-78 CNS
  TGI: > 100 µM
NCI-H460 lung
  TGI: > 100 µM
OVCAR-5 ovarian
  TGI: > 100 µM
HCT-15 colon
  TGI: > 100 µM
SK-MEL-28 melanoma
  TGI: > 100 µM
SK-OV-3 ovarian
  TGI: 49 µM
COLO 205 colon
  TGI: > 100 µM
786-0 renal
  TGI: 49.3 µM
NCI-H226 lung
  TGI: 51.7 µM
ACHN renal
  TGI: 82.5 µM
U251 CNS
  TGI: 35.4 µM
SF-295 CNS
  TGI: > 100 µM
DMS 114 small cell lung
  TGI: > 100 µM
HOP-92 NSCLC
  TGI: 84.9 µM
M14 melanoma
  TGI: > 100 µM
TK-10 renal
  TGI: 70.9 µM
HT29 colon
  TGI: > 100 µM
SNB-75 CNS
  TGI: 49.3 µM
OVCAR-8 ovarian
  TGI: 34.6 µM
A498 renal
  TGI: 45 µM
KM12 colon
  TGI: 43.2 µM
DMS 273 small cell lung
  TGI: > 100 µM
SF-268 CNS
  TGI: 63.9 µM
LXFL 529 NSCLC
  TGI: > 100 µM
UACC-257 melanoma
  TGI: > 100 µM
MALME-3M melanoma
  TGI: 68.5 µM
LOX IMVI melanoma
  TGI: > 100 µM
HOP-62 NSCLC
  TGI: 32.9 µM
SF-539 CNS
  TGI: 30.8 µM
SK-MEL-2 melanoma
  TGI: > 100 µM
HOP-18 NSCLC
  TGI: 70.7 µM
UACC-62 melanoma
  TGI: 46.7 µM
OVCAR-4 ovarian
  TGI: 94.3 µM
RPMI-8226 leukemia
  TGI: > 100 µM
SNB-19 CNS
  TGI: > 100 µM
RXF 393 renal
  TGI: 56.7 µM
OVCAR-3 ovarian
  TGI: > 100 µM
HCT-116 colon
  TGI: 46.8 µM
SK-MEL-5 melanoma
  TGI: 37.7 µM
SW-620 colon
  TGI: > 100 µM
UO-31 renal
  TGI: 80.8 µM
IGROV1 ovarian
  TGI: 45 µM
HCC-2998 colon
  TGI: > 100 µM
NCI-H522 lung
  TGI: > 100 µM
KM20L2 colon
  TGI: > 100 µM

## Cc1ccc(S(=O)(=O)NC(CO)C(=O)O)cc1 (centres undefined)
EKVX NSCLC
  TGI: > 100 µM
NCI-H23 lung
  TGI: > 100 µM
CAKI-1 renal
  TGI: > 100 µM
SN12C renal
  TGI: > 100 µM
K-562 leukemia
  TGI: > 100 µM
NCI-H460 lung
  TGI: > 100 µM
MDA-MB-231 breast
  TGI: > 100 µM
OVCAR-5 ovarian
  TGI: > 100 µM
HCT-15 colon
  TGI: > 100 µM
SK-MEL-28 melanoma
  TGI: > 100 µM
SK-OV-3 ovarian
  TGI: > 100 µM
COLO 205 colon
  TGI: > 100 µM
DU-145 prostate
  TGI: > 100 µM
786-0 renal
  TGI: > 100 µM
NCI-H226 lung
  TGI: > 100 µM
ACHN renal
  TGI: > 100 µM
U251 CNS
  TGI: > 100 µM
SF-295 CNS
  TGI: > 100 µM
HL-60(TB) leukemia
  TGI: > 100 µM
HOP-92 NSCLC
  TGI: > 100 µM
M14 melanoma
  TGI: > 100 µM
BT-549 breast
  TGI: > 100 µM
TK-10 renal
  TGI: > 100 µM
HT29 colon
  TGI: > 100 µM
SNB-75 CNS
  TGI: > 100 µM
OVCAR-8 ovarian
  TGI: > 100 µM
A498 renal
  TGI: > 100 µM
HS 578T breast
  TGI: > 100 µM
KM12 colon
  TGI: > 100 µM
MDA-MB-435
  TGI: > 100 µM
NCI/ADR-RES ovarian
  TGI: > 100 µM
MOLT-4 leukemia
  TGI: > 100 µM
MDA-N
  TGI: > 100 µM
SF-268 CNS
  TGI: > 100 µM
CCRF-CEM leukemia
  TGI: > 100 µM
UACC-257 melanoma
  TGI: > 100 µM
MALME-3M melanoma
  TGI: > 100 µM
LOX IMVI melanoma
  TGI: > 100 µM
HOP-62 NSCLC
  TGI: > 100 µM
SF-539 CNS
  TGI: > 100 µM
SK-MEL-2 melanoma
  TGI: > 100 µM
UACC-62 melanoma
  TGI: > 100 µM
OVCAR-4 ovarian
  TGI: > 100 µM
RPMI-8226 leukemia
  TGI: > 100 µM
MCF7 breast
  TGI: > 100 µM
SNB-19 CNS
  TGI: > 100 µM
RXF 393 renal
  TGI: > 100 µM
OVCAR-3 ovarian
  TGI: > 100 µM
T-47D breast
  TGI: > 100 µM
HCT-116 colon
  TGI: > 100 µM
SK-MEL-5 melanoma
  TGI: > 100 µM
SW-620 colon
  TGI: > 100 µM
UO-31 renal
  TGI: > 100 µM
A549 NSCLC
  TGI: > 100 µM
IGROV1 ovarian
  TGI: > 100 µM
HCC-2998 colon
  TGI: > 100 µM
NCI-H522 lung
  TGI: > 100 µM
PC-3 prostate
  TGI: > 100 µM
SR leukemia
  TGI: > 100 µM

From PubChem BioAssay (NCI)
